Here are results for 27 compounds from patent publication US10710979B2, “EGFR kinase inhibitor and preparation method and use thereof” (ZHEJIANG BOSSAN PHARMACEUTICAL CO. LTD., priority 2015, dated 2020).

For orientation: IC50 means the concentration needed to halve the response being measured. A high value points to lower potency.

What all share (format): cell-based
The subject of assay [1] is human hepatoma cell HepG2. In words: Effect of compounds on proliferation of tumor cells (MTT), HepG2. To be noted: 72 hours. Here is the method:
(§1) Human lung cancer cells H1975, H522, human hepatoma cell HepG2, human melanoma cell A375, human epidermal cancer cell A431, and human colon cancer cells COLO205 were cultivated. The cells were collected when they have grown to logarithmic growth phase, and centrifuged at 1000 rpm for 5 min, from which the supernatant was discarded, and the rest was suspended with appropriate amount of medium, and the concentration of cells was adjusted to 2.5-5.5×10^4/ml (once it was 3.0-5.5×10^4/ml). The cell suspension was inoculated into a 96-well cell culture plate with 100 μl per well, and placed in a cell incubator (37° C., 5% CO2) for 24 hours, and then 100 μl of the drug diluted in the cell culture medium was added to each well of the drug group. Three duplicate wells were set for each drug, and the negative control group was medium containing 0.5% DMSO. After being incubated for 72 hours in the incubator, 20 μl of MTT (5 mg/ml) was added to each well, which was placed under 37° C. for 3 hours. 150 μl of DMSO was added to each well and shaken at 37° C. for 5 mins, and absorbance (OD) was determined at 492 nm. The Prism Graphpad statistical software was used to calculate IC50 values.

Assay [2] relates to human lung cancer cells H1975. Description: Effect of compounds on proliferation of tumor cells (MTT), H1975. The following applies: Homo sapiens, NCI-H1975; H1975 cells, 72 hours, MTT. Here is the method: as §1
For assay [3], the system named is human lung cancer cells H522. Description: Effect of compounds on proliferation of tumor cells (MTT), H522. The following applies: NCI-H522, 72 hours. As to the method:
as §1

In a further assay the test system is human melanoma cell A375. Description: Effect of compounds on proliferation of tumor cells (MTT), A375. To be noted: A-375, 72 hours. As to the method: as §1
Assay [4] deals with human epidermal cancer cell A431. Description: Effect of compounds on proliferation of tumor cells (MTT), A431. To be noted: A-431, 72 hours. As to the method: as §1
Assay [5] has as its system human colon cancer cells COLO205. Description: Effect of compounds on proliferation of tumor cells (MTT), COLO205. The following applies: COLO 205, 72 hours. Here is the method: as §1

On to `C=CC(=O)Nc1cccc(Nc2nc(Nc3ccc(N(C)C4CCN(C(=O)N(C)C)C4)nc3OC)ncc2C(F)(F)F)c1` (stereo not shown) [ES-151], for which the IC50 in assay [1] was 4780 nM; in assay [2] it was 132 nM; in assay [3], 3130 nM; with human melanoma cell A375 it was 4470 nM; in assay [4] it was 6740 nM; in assay [5], 6070 nM.

For the compound `C=CC(=O)Nc1cccc(Nc2nc(Nc3ccc(NC4CCN(C(=O)C5COC5)C4)nc3OC)ncc2C(F)(F)F)c1` (stereo not shown) [ES-125], the IC50 in assay [1] was 16800 nM; in assay [2], 149 nM; in assay [3] it was 3960 nM; in the assay on human melanoma cell A375, 12200 nM; in assay [4], 5040 nM; in assay [5], 5560 nM.

`C=CC(=O)Nc1cccc(Nc2nc(Nc3ccc(N4CCN(S(C)(=O)=O)CC4)nc3OC)ncc2C(F)(F)F)c1` [ES-142]: the IC50 came to 1010 nM in assay [1]; 80 nM in assay [2]; 826 nM in assay [3]; 4400 nM in the assay on human melanoma cell A375; 1220 nM in assay [4]; 2960 nM in assay [5].

Turning to `C=CC(=O)Nc1cccc(Nc2nc(Nc3ccc(N4CCN(C(=O)COC(C)=O)CC4)nc3OC)ncc2C(F)(F)F)c1` [ES-140], the IC50 came out at 5870 nM in assay [1]; 270 nM in assay [2]; 2280 nM in assay [3]; 6460 nM in the assay on human melanoma cell A375; 2080 nM in assay [4]; 3160 nM in assay [5].

For `C=CC(=O)Nc1cccc(Nc2nc(Nc3ccc(N4CCN(C(C)=O)CC4)nc3)ncc2C(F)(F)F)c1` [ES-157], the IC50 in assay [1] turned out to be 1380 nM; in assay [2], 87.2 nM; in assay [3], 655 nM; in the assay with human melanoma cell A375 it was 5460 nM; in assay [4], 1810 nM; in assay [5], 1800 nM.

For the compound `C=CC(=O)Nc1cccc(Nc2nc(Nc3ccc(N4CCN(C(=O)OCC)CC4)nc3OC)ncc2C(F)(F)F)c1` [ES-136], the IC50 was 2050 nM in assay [1]; 175 nM in assay [2]; 1590 nM in assay [3]; 1040 nM with human melanoma cell A375; 768 nM in assay [4]; 3590 nM in assay [5].

Regarding `C=CC(=O)Nc1cccc(Nc2nc(Nc3ccc(N4CCN(C(=O)C(C)C)CC4)nc3OC)ncc2C(F)(F)F)c1` [ES-141], the IC50 in assay [1] stood at 4050 nM; in assay [2], 55.2 nM; in assay [3], 2340 nM; in the assay with human melanoma cell A375, 4500 nM; in assay [4] it was 720 nM; in assay [5] it was 4260 nM.

Regarding `C=CC(=O)Nc1cccc(Nc2nc(Nc3ccc(N4CCN(C(=O)CC)CC4)nc3OC)ncc2C(F)(F)F)c1` [ES-137], the IC50 in assay [1] came out at 2690 nM; in assay [2] it was 21.1 nM; in assay [3], 2290 nM; in the assay with human melanoma cell A375, 3580 nM; in assay [4], 2270 nM; in assay [5] it was 4120 nM.

`C=CC(=O)Nc1cccc(Nc2nc(Nc3ccc(N(C)C4CCN(C)C4)nc3OC)ncc2C(F)(F)F)c1` (stereo not shown) [ES-150]: the IC50 in assay [1] came to 3270 nM; in assay [2] it was 23.2 nM; in assay [3], 1510 nM; in the assay on human melanoma cell A375, 6220 nM; in assay [4], 2050 nM; in assay [5] it was 5150 nM.

As to `C=CC(=O)Nc1cccc(Nc2nc(Nc3ccc(N4CCN(S(=O)(=O)C5CC5)CC4)nc3OC)ncc2C(F)(F)F)c1` [ES-134], the IC50 came out at 399 nM in assay [1]; 69.1 nM in assay [2]; 1640 nM in assay [3]; 3360 nM in the assay on human melanoma cell A375; 1720 nM in assay [4]; 2950 nM in assay [5].

Turning to `C=CC(=O)Nc1cccc(Nc2nc(Nc3cnc(N4CCN(C(=O)N(C)C)CC4)nc3OC)ncc2C(F)(F)F)c1` [ES-164], the IC50 in assay [1] was 12600 nM; in assay [2], 74.5 nM; in assay [3], 1390 nM; in the assay on human melanoma cell A375 it was 18200 nM; in assay [4], 5720 nM; in assay [5], 6050 nM.

Turning to `C=CC(=O)Nc1cccc(Nc2nc(Nc3ccc(N4CCN(S(=O)(=O)CC)CC4)nc3OC)ncc2C(F)(F)F)c1` [ES-143], the IC50 in assay [1] was 401 nM; in assay [2], 480 nM; in assay [3], 1070 nM; in the assay on human melanoma cell A375 it was 2020 nM; in assay [4], > 100000 nM; in assay [5], 2150 nM.

In the case of `C=CC(=O)Nc1cccc(Nc2nc(Nc3cnc(N4CCN(C(=O)OC(C)(C)C)CC4)cc3OC)ncc2C(F)(F)F)c1` [ES-073], the half-inhibitory concentration (IC50) in assay [1] came to 1950 nM; in assay [2], 214 nM; with human melanoma cell A375, 15000 nM; in assay [4], 7080 nM.

Regarding `C=CC(=O)Nc1cccc(Nc2nc(Nc3ccc(N4CCN(C(=O)C5CC5)CC4)nc3OC)ncc2C(F)(F)F)c1` [ES-130], the IC50 in assay [1] is 794 nM; in assay [2] it was 35.6 nM; in assay [3] it was 1770 nM; in the assay on human melanoma cell A375, 4590 nM; in assay [4] it was 2250 nM; in assay [5], 3350 nM.

Take `C=CC(=O)Nc1cccc(Nc2nc(Nc3ccc(N4CCN(C(=O)N(C)C)CC4)nc3OC)ncc2C(F)(F)F)c1` [ES-131]: the IC50 in assay [1] was 3070 nM; in assay [2], 57.9 nM; in assay [3], 2400 nM; in the assay on human melanoma cell A375, 4040 nM; in assay [4], 3820 nM; in assay [5] it was 5330 nM.

Take `C=CC(=O)Nc1cccc(Nc2nc(Nc3ccc(N4CCN(C(=O)CC(C)(C)C)CC4)nc3OC)ncc2C(F)(F)F)c1` [ES-138]: the IC50 in assay [1] is 3070 nM; in assay [2], 254 nM; in assay [3], 5890 nM; with human melanoma cell A375, 3790 nM; in assay [4], 2910 nM; in assay [5], 4080 nM.

With `C=CC(=O)Nc1cccc(Nc2nc(Nc3ccc(N(C)C4CCN(CCF)C4)nc3OC)ncc2C(F)(F)F)c1` (stereo not shown) [ES-148], the IC50 amounted to 4530 nM in assay [1]; 32 nM in assay [2]; 1560 nM in assay [3]; 5870 nM in the assay with human melanoma cell A375; 2500 nM in assay [4]; 5000 nM in assay [5].

Turning to `C=CC(=O)Nc1cccc(Nc2nc(Nc3cnc(N4CCN(C(=O)OC(C)(C)C)CC4)nc3OC)ncc2C(F)(F)F)c1` [ES-159], the IC50 in assay [1] worked out at 2230 nM; in assay [2], 649 nM; in assay [3] it was 3130 nM; in the assay with human melanoma cell A375, 49900 nM; in assay [4], 37000 nM; in assay [5], 1860 nM.

On to `C=CC(=O)Nc1cccc(Nc2nc(Nc3ccc(N4CCN(C(=O)C(F)(F)F)CC4)nc3OC)ncc2C(F)(F)F)c1` [ES-135], for which the IC50 in assay [1] was determined as 329 nM; in assay [2], 110 nM; in assay [3], 3250 nM; in the assay with human melanoma cell A375, 1500 nM; in assay [4], 4430 nM; in assay [5], 8870 nM.

As to `C=CC(=O)Nc1cccc(Nc2nc(Nc3ccc(N4CCN(S(=O)(=O)NC)CC4)nc3OC)ncc2C(F)(F)F)c1` [ES-133], the IC50 in assay [1] came out at 13200 nM; in assay [2], 430 nM; in assay [3] it was 3390 nM; with human melanoma cell A375, 12500 nM; in assay [4], 5680 nM; in assay [5], 5660 nM.

With `C=CC(=O)Nc1cccc(Nc2nc(Nc3ccc(N4CCN(C(=O)C(C)(C)C)CC4)nc3OC)ncc2C(F)(F)F)c1` [ES-139], the IC50 was 3860 nM in assay [1]; 1640 nM in assay [2]; 2710 nM in assay [3]; 9470 nM in the assay with human melanoma cell A375; 4540 nM in assay [4]; 3600 nM in assay [5].

Consider `C=CC(=O)Nc1cccc(Nc2nc(Nc3ccc(N4CCN(S(=O)(=O)CCC)CC4)nc3OC)ncc2C(F)(F)F)c1` [ES-144], for which the IC50 in assay [1] was 101 nM; in assay [2], 133 nM; in assay [3], 399 nM; in the assay on human melanoma cell A375 it was 1510 nM; in assay [4] it was 2180 nM; in assay [5], 1460 nM.

For `C=CC(=O)Nc1cccc(Nc2nc(Nc3cnc(N4CCN(C)CC4)nc3OC)ncc2C(F)(F)F)c1` [ES-161], the IC50 in assay [1] is 6240 nM; in assay [2] it was 86.8 nM; in assay [3], 2750 nM; with human melanoma cell A375 it was 7860 nM; in assay [4], 2320 nM; in assay [5], 4140 nM.

Regarding `C=CC(=O)Nc1cccc(Nc2nc(Nc3ccc(N4CCN(S(=O)(=O)C(C)C)CC4)nc3OC)ncc2C(F)(F)F)c1` [ES-145], the IC50 in assay [1] is 33300 nM; in assay [2], 542 nM; in assay [3], 18000 nM; with human melanoma cell A375, 77800 nM; in assay [4], 13500 nM; in assay [5], 37600 nM.

On to `C=CC(=O)Nc1cccc(Nc2nc(Nc3cnc(N4CCN(C(C)=O)CC4)cc3OC)ncc2C(F)(F)F)c1` [ES-074], for which the IC50 in assay [1] is 6880 nM; in assay [2] it was 179 nM; in the assay on human melanoma cell A375, 10300 nM; in assay [4], 3500 nM.

In the case of `C=CC(=O)Nc1cccc(Nc2nc(Nc3ccc(N4CCNCC4)nc3OC)ncc2C(F)(F)F)c1` [ES-069], the IC50 in assay [1] turned out to be 15800 nM; in assay [2] it was 224 nM; in the assay on human melanoma cell A375, 2420 nM; in assay [4], 5260 nM.

Take `C=CC(=O)Nc1cccc(Nc2nc(Nc3ccc(N4CCN(C(=O)OC(C)(C)C)CC4)nc3OC)ncc2C(F)(F)F)c1` [ES-070]: the IC50 amounted to 7220 nM in assay [1], 111 nM in assay [2], 4940 nM in the assay on human melanoma cell A375 and 1750 nM in assay [4].
